Source: the supplement of paper PMC5908809

Assays:
[1] = tested on: normal NK cells expanded with K562-aAPC; experiment: drug sensitivity score (DSS) (DSS units); higher = more sensitive; extreme values may be limits of the assay; conditions: 72 h; IL-2 2.5 ng/mL
Experimental: (§1)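 Drug sensitivity and resistance testing on K562-aAPC-expanded normal NK cells: 5 concentrations (10-fold steps over a 10,000-fold range), 72 h at 37 °C, viability by CellTiter-Glo normalised to DMSO and benzethonium chloride controls; DSS from the fitted curve.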

[2] = tested on: normal primary NK cells, pool 3 (3 donors) (IL-2 2.5 ng/mL); experiment: as above; conditions: 72 h
[3] = tested on: KAI3 (IL-2 2.5 ng/mL); experiment: as above; conditions: 72 h
[4] = tested on: normal primary NK cells, pool 1 (3 donors) (IL-2 2.5 ng/mL); experiment: as above; conditions: 72 h
[5] = tested on: SNK-6 (IL-2 2.5 ng/mL); experiment: as above; conditions: 72 h
[6] = tested on: KHYG-1 (IL-2 2.5 ng/mL); experiment: as above; conditions: 72 h
[7] = tested on: normal primary NK cells, pool 2 (3 donors) (IL-2 2.5 ng/mL); experiment: as above; conditions: 72 h
[8] = tested on: NK-92 (IL-2 2.5 ng/mL); experiment: as above; conditions: 72 h
[9] = tested on: YT (IL-2 2.5 ng/mL); experiment: as above; conditions: 72 h
[10] = tested on: DERL-7 (IL-2 2.5 ng/mL); experiment: as above; conditions: 72 h
[11] = tested on: normal primary NK cells, pool 1 (3 donors), resting (IL-2 0 ng/mL); experiment: as above; conditions: 72 h
[12] = tested on: NKL (IL-2 2.5 ng/mL); experiment: as above; conditions: 72 h
[13] = tested on: NK-YS (IL-2 2.5 ng/mL); experiment: as above; conditions: 72 h
[14] = tested on: IMC-1 (IL-2 20 ng/mL); experiment: as above; conditions: 72 h
[15] = tested on: normal NK cells expanded with K562-aAPC; experiment: percent inhibition of viability; higher = more inhibition; conditions: 72 h, IL-2 2.5 ng/mL
Experimental: as §1

[16] = tested on: normal primary NK cells, pool 3 (3 donors) (IL-2 2.5 ng/mL); experiment: as above; conditions: 72 h
[17] = tested on: KAI3 (IL-2 2.5 ng/mL); experiment: as above; conditions: 72 h
[18] = tested on: normal primary NK cells, pool 1 (3 donors) (IL-2 2.5 ng/mL); experiment: as above; conditions: 72 h
[19] = tested on: SNK-6 (IL-2 2.5 ng/mL); experiment: as above; conditions: 72 h
[20] = tested on: KHYG-1 (IL-2 2.5 ng/mL); experiment: as above; conditions: 72 h
[21] = tested on: normal primary NK cells, pool 2 (3 donors) (IL-2 2.5 ng/mL); experiment: as above; conditions: 72 h
[22] = tested on: NK-92 (IL-2 2.5 ng/mL); experiment: as above; conditions: 72 h
[23] = tested on: YT (IL-2 2.5 ng/mL); experiment: as above; conditions: 72 h
[24] = tested on: DERL-7 (IL-2 2.5 ng/mL); experiment: as above; conditions: 72 h
[25] = tested on: normal primary NK cells, pool 1 (3 donors), resting (IL-2 0 ng/mL); experiment: as above; conditions: 72 h
[26] = tested on: NKL (IL-2 2.5 ng/mL); experiment: as above; conditions: 72 h
[27] = tested on: NK-YS (IL-2 2.5 ng/mL); experiment: as above; conditions: 72 h
[28] = tested on: IMC-1 (IL-2 20 ng/mL); experiment: as above; conditions: 72 h

CC1(C)NC(=O)N(c2ccc([N+](=O)[O-])c(C(F)(F)F)c2)C1=O [Nilutamide] (max concentration tested 10000 nM)
Conditions	drug sensitivity score
[1]	0.04
[2]	0
[3]	1.74
[4]	0
[5]	0
[6]	0.08
[7]	0
[8]	0.81
[9]	0.93
[10]	0
[11]	1.43
[12]	4.46
[13]	0.84
[14]	2.47

percent inhibition of viability [%]
Conditions	1 nM	10 nM	100 nM	1000 nM	10000 nM
[15]	-10	-7.03	-6.98	-0.84	12.4
[16]	1.57	6.88	3.88	-4.89	-2.84
[17]	2	1.75	11.7	3.52	28.1
[18]	-9.72	5.06	-2.38	6.35	1.66
[19]	33.2	-24.8	-17.7	-22.5	-4.35
[20]	24.8	-7.14	-0.73	-1.75	15.3
[21]	-2.69	6.11	0.2	1.25	3.42
[22]	-0.95	-6.88	4.02	-1.88	24.8
[23]	0.36	-6.16	5.94	-0.37	25
[24]	-0.2	-1.34	3.47	-0.03	1.75
[25]	-1.3	10.6	10.3	9.07	18.9
[26]	10.6	5.58	15.2	17.2	31.6
[27]	-5.09	-3.33	-3.78	3.59	17.6
[28]	0	-0.12	2.93	3	40.4

C=C(c1ccc(C(=O)O)cc1)c1cc2c(cc1C)C(C)(C)CCC2(C)C [Bexarotene] (max concentration tested 10000 nM)
Conditions	drug sensitivity score
[1]	0
[2]	0
[3]	2.32
[4]	0
[5]	1.61
[6]	11.4
[7]	0
[8]	9.12
[9]	4.39
[10]	0
[11]	0.5
[12]	15.3
[13]	6.37
[14]	0.08

percent inhibition of viability [%]
Conditions	1 nM	10 nM	100 nM	1000 nM	10000 nM
[15]	-0.13	-7.46	-13.6	-8.25	-6.11
[16]	-2.37	-1.77	4	-8.07	-0.96
[17]	-2.82	4.02	5.5	12.6	29.6
[18]	2.65	3.77	5.07	-0.78	2.54
[19]	-4.84	-4.27	10	4.19	25.4
[20]	0.07	-1.61	31.4	35.3	42.5
[21]	-3.26	-9.74	-11.1	-7.66	2.35
[22]	-0.26	-14.3	18	38.2	32.8
[23]	1.74	-2.56	5.09	22.2	38.4
[24]	-1.72	-14.1	-7.53	1.51	6.9
[25]	6.01	-4.44	-0.24	2.22	15.6
[26]	-2.63	-4.9	33.7	59.2	80.4
[27]	-0.63	-6.05	10.2	30.5	40.5
[28]	-7.44	-4.67	-6.9	-7.39	14.5
